According to ChEMBL document CHEMBL1144724, “Secondary metabolites of Cinnamosma madagascariensis and their alpha-glucosidase inhibitory properties” (J Nat Prod, 2008):
Activity calls are given as the source filed them. The rule behind the calls is not given here.

Assay: Inhibition of alpha-glucosidase at 0.1 mg/mL relative to 1-deoxynojirimycin

Compound | inhibition [%] | Activity
CC(=O)O[C@@H]1[C@@H](O)C2=C(COC2=O)[C@@]2(C)CCCC(C)(C)[C@H]12 | 14.9 | –
CC1(C)CCC[C@@]2(C)[C@H]1[C@H](O)C=C1C(=O)OC[C@@]12O | 7.2 | –
CO[C@@H]1O[C@@H](OC)[C@@]2(O)C1=C[C@@H](OC(C)=O)[C@H]1C(C)(C)CCC[C@@]12C | – | inactive
CC1(C)CCC[C@]2(C)[C@@H](C=O)C(C=O)=CC[C@@H]12 | 2.1 | –
CC(=O)O[C@@H]1C=C2C(=O)OC[C@]2(O)[C@@]2(C)CCCC(C)(C)[C@H]12 | 20 | –
CC(=O)O[C@@H]1[C@@H](O)C2=C(C(=O)OC2)[C@@]2(C)CCCC(C)(C)[C@H]12 | 46.2 | –
CC(=O)O[C@@H]1[C@@H](Cl)C2=C(COC2=O)[C@@]2(C)CCCC(C)(C)[C@H]12 | 28.1 | –
CC(=O)O[C@@H]1C=C(C2O[C@@H]3OC(O)C4=C[C@@H](OC(C)=O)[C@H]5C(C)(C)CCC[C@]5(C)[C@]43O2)[C@](O)(C=O)[C@@]2(C)CCCC(C)(C)[C@H]12 (stereo partly drawn) | 83.7 | –
